Results from ChEMBL document CHEMBL5346873, “Strategic modification of low-activity natural antimicrobial peptides confers antibacterial potential in vitro and in vivo” (Eur J Med Chem, 2023).
One block for each substance: values may come before it.

Columns and labels:
Staphylococcus aureus = assay: Bactericidal activity against Staphylococcus aureus incubated for overnight; assay type: functional
[1] = Hemolytic activity in human RBC at 100 ug/ml incubated for 1 hr; assay type: toxicity, cell-based, Erythrocyte; conditions: human red blood cells (erythrocytes), at 100 µg/mL, read-out: Activity
Acinetobacter baumannii = assay: Bactericidal activity against Acinetobacter baumannii incubated for overnight; assay type: functional
Klebsiella pneumoniae [2] = assay: Antibacterial activity against NDM Klebsiella pneumoniae incubated for 16 to 20 hrs; assay type: functional; conditions: time 16-20 hrs
Klebsiella aerogenes [3] = assay: Bactericidal activity against Enterobacter aerogenes incubated overnight; assay type: functional
Aeromonas hydrophila [4] = assay: Antibacterial activity against Aeromonas hydrophila incubated for 16 to 20 hrs; assay type: functional; conditions: time 16-20 hrs
Vibrio anguillarum [5] = assay: Antibacterial activity against Listonella anguillarum incubated for 16 to 20 hrs; assay type: functional; conditions: time 16-20 hrs
Streptococcus agalactiae [6] = assay: Antibacterial activity against Streptococcus agalactiae incubated for 16 to 20 hrs; assay type: functional; conditions: time 16-20 hrs
Klebsiella pneumoniae [7] = assay: Bactericidal activity against NDM Klebsiella pneumoniae incubated overnight; assay type: functional
Vibrio vulnificus [8] = assay: Antibacterial activity against Vibrio vulnificus V3 incubated for 16 to 20 hrs; assay type: functional; conditions: time 16-20 hrs
[9] = tested on: Staphylococcus haemolyticus; assay: Antibacterial activity against Staphylococcus haemolyticus incubated for 16 to 20 hrs; assay type: functional; conditions: time 16-20 hrs
Pseudomonas aeruginosa [10] = assay: Bactericidal activity against Pseudomonas aeruginosa incubated overnight; assay type: functional
Candida tropicalis [11] = assay: Fungicidal activity against Candida tropicalis incubated overnight; assay type: functional
Enterococcus faecium [12] = assay: Antibacterial activity against Enterococcus faecium incubated for 16 to 20 hrs; assay type: functional; conditions: time 16-20 hrs
Enterococcus faecalis [13] = assay: Antibacterial activity against Enterococcus faecalis incubated for 16 to 20 hrs; assay type: functional; conditions: time 16-20 hrs
Streptococcus agalactiae [14] = assay: Bactericidal activity against Streptococcus agalactiae incubated overnight; assay type: functional
Klebsiella oxytoca [15] = assay: Antibacterial activity against Klebsiella oxytoca incubated for 16 to 20 hrs; assay type: functional; conditions: time 16-20 hrs
Nakaseomyces glabratus [16] = assay: Antifungal activity against Candida glabrata incubated for 16 to 20 hrs; assay type: functional; conditions: time 16-20 hrs
Vibrio harveyi [17] = assay: Bactericidal activity against Vibrio harveyi incubated overnight; assay type: functional
Edwardsiella tarda [18] = assay: Antibacterial activity against Edwardsiella tarda incubated for 16 to 20 hrs; assay type: functional; conditions: time 16-20 hrs
Vibrio alginolyticus [19] = assay: Bactericidal activity against Vibrio alginolyticus incubated overnight; assay type: functional
[20] = tested on: Staphylococcus haemolyticus; assay: Bactericidal activity against Staphylococcus haemolyticus incubated overnight; assay type: functional
Klebsiella oxytoca [21] = assay: Bactericidal activity against Klebsiella oxytoca incubated overnight; assay type: functional
Pseudomonas aeruginosa [22] = assay: Antibacterial activity against Pseudomonas aeruginosa incubated for 16 to 20 hrs; assay type: functional; conditions: time 16-20 hrs
Vibrio vulnificus [23] = assay: Bactericidal activity against Vibrio vulnificus 204 incubated overnight; assay type: functional
Streptococcus iniae [24] = assay: Antibacterial activity against Streptococcus iniae incubated for 16 to 20 hrs; assay type: functional; conditions: time 16-20 hrs
Klebsiella aerogenes [25] = assay: Antibacterial activity against Enterobacter aerogenes incubated for 16 to 20 hrs; assay type: functional; conditions: time 16-20 hrs
Vibrio alginolyticus [26] = assay: Antibacterial activity against Vibrio alginolyticus incubated for 16 to 20 hrs; assay type: functional; conditions: time 16-20 hrs
Vibrio anguillarum [27] = assay: Bactericidal activity against Listonella anguillarum incubated overnight; assay type: functional
Aeromonas hydrophila [28] = assay: Bactericidal activity against Aeromonas hydrophila incubated overnight; assay type: functional
Salmonella typhimurium [29] = assay: Bactericidal activity against Salmonella typhimurium incubated overnight; assay type: functional, Salmonella enterica subsp. enterica serovar Typhimurium; conditions: Salmonella enterica
Enterococcus faecium [30] = assay: Bactericidal activity against Enterococcus faecium incubated overnight; assay type: functional
Vibrio harveyi [31] = assay: Antibacterial activity against Vibrio harveyi incubated for 16 to 20 hrs; assay type: functional; conditions: time 16-20 hrs
Vibrio vulnificus [32] = assay: Antibacterial activity against Vibrio vulnificus V1 incubated for 16 to 20 hrs; assay type: functional; conditions: time 16-20 hrs
Vibrio vulnificus [33] = assay: Bactericidal activity against Vibrio vulnificus V2 incubated overnight; assay type: functional
Vibrio vulnificus [34] = assay: Bactericidal activity against Vibrio vulnificus V3 incubated overnight; assay type: functional
Candida tropicalis [35] = assay: Antifungal activity against Candida tropicalis incubated for 16 to 20 hrs; assay type: functional; conditions: time 16-20 hrs
Salmonella enterica [36] = assay: Antibacterial activity against Salmonella enterica incubated for 16 to 20 hrs; assay type: functional; conditions: time 16-20 hrs
Vibrio vulnificus [37] = assay: Bactericidal activity against Vibrio vulnificus V1 incubated overnight; assay type: functional
Streptococcus iniae [38] = assay: Bactericidal activity against Streptococcus iniae incubated overnight; assay type: functional
Escherichia coli [39] = assay: Antibacterial activity against Escherichia coli incubated for 16 to 20 hrs; assay type: functional; conditions: time 16-20 hrs
Salmonella enterica [40] = assay: Bactericidal activity against Salmonella enterica incubated overnight; assay type: functional
Nakaseomyces glabratus [41] = assay: Fungicidal activity against Candida glabrata incubated overnight; assay type: functional
Escherichia coli [42] = assay: Bactericidal activity against Escherichia coli incubated overnight; assay type: functional
Edwardsiella tarda [43] = assay: Bactericidal activity against Edwardsiella tarda incubated overnight; assay type: functional
Vibrio vulnificus [44] = assay: Antibacterial activity against Vibrio vulnificus V2 incubated for 16 to 20 hrs; assay type: functional; conditions: time 16-20 hrs
Salmonella typhimurium [45] = assay: Antibacterial activity against Salmonella typhimurium incubated for 16 to 20 hrs; assay type: functional, Salmonella enterica subsp. enterica serovar Typhimurium; conditions: Salmonella enterica; time 16-20 hrs
Enterococcus faecalis [46] = assay: Bactericidal activity against Enterococcus faecalis incubated overnight; assay type: functional
Vibrio vulnificus [47] = assay: Antibacterial activity against Vibrio vulnificus 204 incubated for 16 to 20 hrs; assay type: functional; conditions: time 16-20 hrs

Substance: H-FKWKSVLKIVDIFVDIYF-OH
MBC (Staphylococcus aureus): > 100 µg/mL
hemolysis at 1 h, 100 ug/ml [1]: 67.8%
MBC (Acinetobacter baumannii): > 100 µg/mL

Substance: H-FKWKSVLKIVKIFVDIYF-OH
MBC (Staphylococcus aureus): > 100 µg/mL
hemolysis at 1 h, 100 ug/ml [1]: 48.1%
MBC (Acinetobacter baumannii): > 100 µg/mL

Substance: H-FKWKSVLKIVKIFVKIYF-OH
MBC (Staphylococcus aureus): > 100 µg/mL
hemolysis at 1 h, 100 ug/ml [1]: 14.2%
MBC (Acinetobacter baumannii): 12.5 µg/mL

Substance: H-GECIWDAIFHGAKHFLHRLVNP-OH
MBC (Staphylococcus aureus): > 100 µg/mL
hemolysis at 1 h, 100 ug/ml [1]: 28.5%
MBC (Acinetobacter baumannii): > 100 µg/mL

Substance: H-GKCIAKAIFKGAKKFLKKLVNP-OH
MBC (Staphylococcus aureus): > 100 µg/mL
hemolysis at 1 h, 100 ug/ml [1]: 16.7%
MBC (Acinetobacter baumannii): 3.12 µg/mL

Substance: H-GKCIAKAIFKGAKKLLKKLVNP-OH
MBC (Staphylococcus aureus): 100 µg/mL
hemolysis at 1 h, 100 ug/ml [1]: 25.8%
MBC (Acinetobacter baumannii): 3.12 µg/mL

Substance: H-GKCIAKAILKGAKKLLKKLVNP-OH
MBC (Staphylococcus aureus): 100 µg/mL
hemolysis at 1 h, 100 ug/ml [1]: 31.8%
MBC (Acinetobacter baumannii): 1.56 µg/mL

Substance: H-GKCIWKAIFKGAKKFLKKLVNP-OH
MBC (Staphylococcus aureus): 50 µg/mL
hemolysis at 1 h, 100 ug/ml [1]: 72.4%
MBC (Acinetobacter baumannii): 1.56 µg/mL

Substance: H-KKCIAKAILKKADDLLDDLVNP-OH
MBC (Staphylococcus aureus): > 100 µg/mL
hemolysis at 1 h, 100 ug/ml [1]: 0%
MBC (Acinetobacter baumannii): > 100 µg/mL

Substance: H-KKCIAKAILKKAKDLLDDLVNP-OH
MBC (Staphylococcus aureus): > 100 µg/mL
hemolysis at 1 h, 100 ug/ml [1]: 0%
MBC (Acinetobacter baumannii): 50 µg/mL

Substance: H-KKCIAKAILKKAKKLLDDLVNP-OH
MBC (Staphylococcus aureus): > 100 µg/mL
hemolysis at 1 h, 100 ug/ml [1]: 0%
MBC (Acinetobacter baumannii): 6.25 µg/mL

MIC (Klebsiella pneumoniae [2]): 50 µg/mL
MIC (Aeromonas hydrophila [4]): > 100 µg/mL
MIC (Vibrio anguillarum [5]): 50 µg/mL
MIC (Streptococcus agalactiae [6]): 3.12 µg/mL
MIC (Vibrio vulnificus [8]): 12.5 µg/mL
MIC (Enterococcus faecium [12]): > 100 µg/mL
MIC (Enterococcus faecalis [13]): 50 µg/mL
MIC (Klebsiella oxytoca [15]): 50 µg/mL
MIC (Nakaseomyces glabratus [16]): > 100 µg/mL
MIC (Edwardsiella tarda [18]): > 100 µg/mL
MIC (Pseudomonas aeruginosa [22]): 100 µg/mL
MIC (Streptococcus iniae [24]): 3.12 µg/mL
MIC (Klebsiella aerogenes [25]): 12.5 µg/mL
MIC (Vibrio alginolyticus [26]): 6.25 µg/mL
MIC (Vibrio harveyi [31]): > 100 µg/mL
MIC (Vibrio vulnificus [32]): 12.5 µg/mL
MIC (Candida tropicalis [35]): > 100 µg/mL
MIC (Salmonella enterica [36]): 25 µg/mL
MIC (Escherichia coli [39]): 50 µg/mL
MIC (Vibrio vulnificus [44]): 12.5 µg/mL
MIC (Salmonella typhimurium [45]): 100 µg/mL
MIC (Vibrio vulnificus [47]): 12.5 µg/mL
Substance: H-KKCIAKAILKKAKKLLKDLVNP-OH
MBC (Klebsiella aerogenes [3]): 12.5 µg/mL
MBC (Klebsiella pneumoniae [7]): 50 µg/mL
MIC [9]: < 1.56 µg/mL
MBC (Pseudomonas aeruginosa [10]): > 100 µg/mL
MFC (Candida tropicalis [11]): > 100 µg/mL
MBC (Streptococcus agalactiae [14]): 3.12 µg/mL
MBC (Vibrio harveyi [17]): > 100 µg/mL
MBC (Vibrio alginolyticus [19]): 6.25 µg/mL
MBC [20]: < 1.56 µg/mL
MBC (Klebsiella oxytoca [21]): 50 µg/mL
MBC (Vibrio vulnificus [23]): 12.5 µg/mL
MBC (Vibrio anguillarum [27]): 100 µg/mL
MBC (Aeromonas hydrophila [28]): > 100 µg/mL
MBC (Salmonella typhimurium [29]): 100 µg/mL
MBC (Enterococcus faecium [30]): > 100 µg/mL
MBC (Vibrio vulnificus [33]): 12.5 µg/mL
MBC (Staphylococcus aureus): > 100 µg/mL
MBC (Vibrio vulnificus [34]): 12.5 µg/mL
hemolysis at 1 h, 100 ug/ml [1]: 3.7%
MBC (Acinetobacter baumannii): 1.56 µg/mL
MBC (Vibrio vulnificus [37]): 12.5 µg/mL
MBC (Streptococcus iniae [38]): 3.12 µg/mL
MBC (Salmonella enterica [40]): 25 µg/mL
MFC (Nakaseomyces glabratus [41]): > 100 µg/mL
MBC (Escherichia coli [42]): 50 µg/mL
MBC (Edwardsiella tarda [43]): > 100 µg/mL
MBC (Enterococcus faecalis [46]): > 100 µg/mL
